According to patent publication US20210254101A1, “METHODS FOR TREATING SPINAL CORD INJURY” (THE CHILDREN'S MEDICAL CENTER CORPORATION, priority 2018, published 2021):

Experiments:
[1] = test system: mice with a complete T8 spinal cord transection; assay: BMS open field locomotion after complete T8 spinal cord transection; type: in vivo, mouse; details: complete T8 transection; same treatment as in staggered lesion; FIG. 7E
From the text: CLP290's effects could result from reactivating the spared dormant descending connections in the spinal cord after SCI. However, it could also act directly on the lumbar spinal cord, independently of descending inputs. […] Therefore, different from this transient effector that acts directly on the lumbar spinal cord, the effects of CLP290 on functional improvement are dependent on spared connections.
The procedure of T8 full transection was similar to that described elsewhere (Courtine et al., 2009). Briefly, a midline incision was made over the thoracic vertebrae, followed by a T8 laminectomy. The complete T8 transection was then performed carefully using both a scalpel and micro-scissors. The muscle layers were then sutured and the skin was secured with wound clips.
(§1) Behavioral Experiments. Motor function was evaluated with a locomotor open field rating scale on the Basso Mouse Scale (BMS). For transient pharmacological treatments, ten to fifteen minutes (van den Brand et al., 2012) prior to behavioral tests (grounding walking, all of which were performed individually), mice received systematic administration (i.p.) of the neural modulators listed above. It is important to note that with a single intraperitoneal injection, plasma CNO levels peak at 15 min and become very low by 2 h after injection (Guettier et al., 2009). For chronic pharmacological treatments, 24 hours prior to behavioral tests, mice received systematic administration of the compounds listed above. All behavioral tests were completed within 1-3 hours. For detailed hindlimb kinematic analysis, mice from different groups were placed in the MotoRater (TSE Systems, (Zorner et al., 2010)), and all kinematic analysis was performed based on data collected by the MotoRater.

[2] = Side effects of compounds tested in the study; type: in vivo, mouse; details: even at high doses; data not shown
[3] = test system: mice with staggered lesions; assay: Hindlimb kinematic analysis (MotoRater) and EMG recording of TA and GS muscles during stepping; type: in vivo, mouse
From the text: This extent of recovery is functionally significant, as stepping ability has been implicated as the limiting step for functional recovery in severe injury models (Schucht et al., 2002).
EMG Recording and cortical stimulation. The procedure for EMG recording in free moving animals was similar to that described previously (Pearson et al., 2005). In brief, at 9 weeks after surgery, 5 mice from each group (Control, CLP290 and AAV-KCC2 treated mice) underwent implantation of customized bipolar electrodes into selected hindlimb muscles to record EMG activity. Electrodes (793200, A-M Systems) were led by 30 gauge needles and inserted into the mid-belly of the medial gastrocnemius (GS) and tibialis anterior (TA) muscles of the right hindlimb. A common ground wire was inserted subcutaneously in the neck-shoulder area. Wires were routed subcutaneously through the back to a small percutaneous connector securely cemented to the skull of the mouse. EMG signals were acquired using a differential AC amplifier (1700, A-M Systems, WA) with 10-1000 Hz filtration, sampled at 4 kHz using a digitizer (PowerLab 16/35, ADInstruments), and analyzed by LabChart 8 (ADInstruments).
as §1

[4] = test system: neuropathic pain; details: animal models; Gagnon et al., 2013; Ferrini et al., 2017; Knabl et al., 2008; cited from earlier work
[5] = test system: c-Fos; assay: c-Fos immunoreactivity in spinal cord segments between T7 and T10 after 1 hour walking; type: in vivo, mouse
From the text: In mature neurons, GABA and glycine are inhibitory because they open chloride channels, which allow chloride ion influx leading to hyperpolarization. In contrast, during development, the elevated intracellular chloride levels render GABAA- and glycine-mediated currents depolarizing and generally excitatory. During early postnatal life, KCC2 upregulation in postnatal neurons is crucial for reducing intracellular chloride concentrations, transforming excitation into inhibition (Ben-Ari et al., 2012; Kaila et al., 2014). Thus, injury-induced KCC2 down-regulation (Boulenguez et al., 2010; Cote et al., 2014) would be expected to restore an immature state in which GABA and glycine receptors can depolarize neurons. In this scenario, KCC2 activation in spinal inhibitory neurons would transform local circuits in the relay zone towards a more physiological state, which is more receptive to descending inputs. To examine this, c-Fos immunoreactivity was used as a proxy of neuronal activity in the spinal cord segments between T7 and T10 at 8 weeks after injury, and after walking on a treadmill for 1 hour. In each group, the majority of c-Fos-positive cells in these spinal segments were also positively stained with NeuN, a neuronal marker (FIG. 11A, 11B). In injured mice without treatment, the c-Fos-positive neurons were concentrated in the dorsal horn of the spinal cord (FIG. 5A-5C), perhaps reflecting hypersensitivity to peripheral sensory inputs in these injured mice. […] This KCC2-transformed distribution pattern is similar to what was detected in intact mice, in response to walking (FIG. 5A-5C).
Immunohistochemistry and Imaging. The paraformaldehyde (PFA) fixed tissues were cryo-protected with 30% sucrose and processed using cryostat (section thickness 40 μm for spinal cord). Sections were treated with a blocking solution containing 10% normal donkey serum with 0.5% Triton-100 for 2 hours at room temperature before staining. The primary antibodies (4 □, overnight) used were: rabbit anti-GFAP [DAKO (Z0334), 1:600]; rabbit anti-5-HT [Immunostar (20080), 1:5,000]; chicken anti-GFP [Abcam (ab13970), 1:400]; rabbit anti-RFP [Abcam (ab34771), 1:400]; rabbit anti-PKCγ [Santa Cruz (sc211), 1:100]; rat anti-HA [Sigma (11867423001), 1:200]; rabbit anti-c-Fos [Cell signaling (2250s), 1:100]; and mouse anti-NeuN [Millipore (MAB377), 1:400]. Secondary antibodies (room temperature, 2 h) included: Alexa Fluor 488-conjugated donkey anti chicken and rabbit; and Alexa Fluor 594-conjugated donkey anti rabbit (all from Invitrogen). c-Fos immunoreactivity of spinal neurons was determined as previously described (Courtine et al., 2009), after 1-hour of continuous quadrupedal free walking (intact), stepping (CLP290 or AAV-KCC2 treated mice) or dragging (vehicle or AAV-GFP treated mice). The mice were returned to their cages, and were then anesthetized and sacrificed by intracardial perfusion of 4% PFA (wt/vol) in phosphate buffered saline (PBS) about 2 hours later.

[6] = T8/9, 8 weeks after injury, chronic treatment, FIG. 5A-5C

O=C1N=C(N2CCCCN2)S/C1=C\c1ccc(F)cc1OC(=O)N1CCCC1 [CLP290, [5-Fluoro-2-[(Z)-(2-hexahydropyridazin-1-yl-4-oxo-thiazol-5-ylidene)methyl]phenyl] pyrrolidine-1-carboxylate]
functional recovery (BMS), chronic treatment [1]: failed to promote any significant functional recovery
side effects [2]: negligible side effects even at high doses
total hindlimb stride length ([3]; 9 weeks post staggered injury, versus vehicle, FIG. 1J): significantly increased
TA/GS activation pattern during stepping gait ([3]; compared with alternating TA/GS activation in intact mice, FIG. 1K): co-activation of TA and GS during the swing phase
oscillation of hindlimb joints ([3]; staggered-lesioned mice during stepping, FIGS. 1H-1K): significantly increased oscillation of hindlimb joints
bodyweight support during stepping ([3]; staggered-lesioned mice, 8-9 weeks after injury): could partially support their body weight
EMG activity of tibialis anterior (TA) and gastrocnemius soleus (GS) muscles ([3]; staggered-lesioned mice, FIG. 1K, 2H): showed both TA and GS activity
effect on neuropathic pain [4]: effectively treat neuropathic pain in animal models
c-Fos pattern after withdrawal of treatment ([5]; 2 weeks after withdrawal, FIGS. 11C and 11D): returned to what seen without treatment
c-Fos-positive neurons in the dorsal horn (laminae I-V) [5, 6]: a reduction in the dorsal horn
c-Fos-positive neurons in the intermediate/ventral spinal cord [5, 6]: a significant increase in the intermediate/ventral spinal cord
